For one data set, the target named is T1, rat-alpha 7-nAChR (Rattus norvegicus, UniProt Q05941).
T1 construct: expressed in transfected cells
The experiment in a line: functional FLIPR assay, GH4C1 cells stably expressing alpha7 nAChR (intracellular calcium). The class given is cell-based. Particulars: alpha7 nAChR stably expressed in GH4C1 cells; agonist concentration range 0.001 to 30 microM.

Data set [1] can be described thus: solubility in water of hydrochloride salt crystal forms. To be noted: result in words. The class given is physicochemical.
The nature of data set [2]: hygroscopicity / Dynamic Vapor Sorption (DVS) of hydrochloride salt crystal forms. The data set is classed as physicochemical. To be noted: for water absorbed eventually: RH of 90%; for Hygroscopicity: hydrochloride salt of Example 4, result in words; for water uptake: at RH 50%. As for the experimental part:
Differential scanning calorimetry data were collected for each solid form achieved using a DSC (TA instruments, model Q1000) under the following parameters: 50 mL/min purge gas (N2); scan range 40 to 200° C., scan rate 10° C./min. Thermogravimetric analysis data were collected using a TGA instruments (Mettler Toledo, model TGA/SDTA 851e) under the following parameters: 40 ml/min purge gas (N2); scan range 30 to 250° C., scan rate 10° C./min. X-ray data were acquired using an X-ray powder diffractometer (Bruker-axs, model D8 advance) having the following parameters: voltage 40 kV, current 40.0 mA, scan range (2) 5 to 30°, scan step size 0.01°, total scan time 33 minutes, VANTEC detector, and antiscattering slit 1 mm. FIGS. 1-7 show characterization data for hydrochloride salt forms.
Dynamic Vapor Sorption (DVS) was done at 26° C.

Where a name gives a salt, the structure may show the parent alone.

T1 sequence (Q05941 23-502): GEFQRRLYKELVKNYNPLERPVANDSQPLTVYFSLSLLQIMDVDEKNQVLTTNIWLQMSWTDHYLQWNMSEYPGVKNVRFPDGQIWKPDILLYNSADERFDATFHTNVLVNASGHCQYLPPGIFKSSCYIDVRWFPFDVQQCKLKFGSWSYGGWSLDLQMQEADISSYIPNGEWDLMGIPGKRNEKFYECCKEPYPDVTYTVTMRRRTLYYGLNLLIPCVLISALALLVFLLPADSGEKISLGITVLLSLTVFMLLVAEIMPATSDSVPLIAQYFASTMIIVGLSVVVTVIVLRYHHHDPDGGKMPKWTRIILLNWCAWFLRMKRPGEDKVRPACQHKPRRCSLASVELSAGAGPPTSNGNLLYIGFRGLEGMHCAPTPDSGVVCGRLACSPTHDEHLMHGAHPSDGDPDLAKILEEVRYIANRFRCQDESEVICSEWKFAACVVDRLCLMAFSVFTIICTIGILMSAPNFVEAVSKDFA
Excerpt for rat-alpha 7-nAChR: Rat GH4C1 cells were then transfected with the rat receptor, cloned and analyzed for functional alpha 7 nicotinic receptor expression employing a FLIPR assay to measure changes in intracellular calcium concentrations.
The FLIPR system allows the measurements of real time Ca^2+-concentration changes in living cells using a Ca^2+ sensitive fluorescence dye (such as Fluo4). This instrument enables the screening for agonists and antagonists for alpha 7 nAChR channels stably expressed in GH4C1 cells.
GH4C1 cells stably transfected with rat-alpha 7-nAChR (see above) were used. These cells are poorly adherent and therefore pretreatment of flasks and plates with poly-D-lysine was carried out. Cells are grown in 150 cm^2 T-flasks, filled with 30 ml of medium at 37° C. and 5% CO2.
EC50 and IC50 values were calculated using the IDBS XLfit4.1 software package employing a sigmoidal concentration-response (variable slope) equation:
The compounds were tested using the functional FLIPR primary screening assay employing the stable recombinant GH4C1 cell line expressing the alpha 7 nAChR. Hits identified were validated further by generation of concentration-response curves.

As a reminder, the melting point is the temperature of the solid-liquid transition. For `COc1ccc(-c2cc(NC(=O)CCCCN3CCCN(C(C)=O)CC3)[nH]n2)cc1` (as salt: hydrochloride) [Example 4, 5-(4-Acetyl-[1,4]diazepan-1-yl)-pentanoic acid [5-(4-methoxy-phenyl)-2H-pyrazol-3-yl]-amide], the melting point is 132 to 133 °C.

By EC50 is commonly meant the concentration at which the effect is half-maximal. Regarding `C[N+]1(C)CCN(c2ccccc2)CC1` [DMPP], the EC50 at rat-alpha 7-nAChR is 980 ± 470 nM.

With `COc1ccc(-c2cc(NC(=O)CCCCN3CCCN(C(C)=O)CC3)[nH]n2)cc1` [Form II, 5-(4-acetyl-1,4-diazepan-1-yl)-N-(5-(4-methoxyphenyl)-1H-pyrazol-3-yl)pentanamide], the solubility in water result in data set [1] was “considerably soluble”. Moreover, in data set [2] (DVS at 26° C.), the “relative humidity at which the form picks up moisture” value is “about 20%” and the water absorbed eventually result was “up to 7%”. The “water held at low RH” value in data set [2] (RH 0%, DVS at 26° C.) was 2%. Also, the Hygroscopicity entry in data set [2] is listed as “non-hygroscopic”.

Consider `COc1ccc(-c2cc(NC(=O)CCCCN3CCCN(C(C)=O)CC3)[nH]n2)cc1` [Form I, 5-(4-acetyl-1,4-diazepan-1-yl)-N-(5-(4-methoxyphenyl)-1H-pyrazol-3-yl)pentanamide], for which, in data set [1], the solubility in water result is “considerably soluble”. Further, in data set [2] (DVS at 26° C.), the “relative humidity at which the form picks up moisture” value is “about 50%” and the water absorbed eventually entry is recorded as “up to 2%”. The moisture gain entry in data set [2] (at 70-100% RH, lost without significant hysteresis on decreasing RH) is reported as “at least 12%”. Moreover, the moisture gain entry in data set [2] (equilibrated at RH less than or equal to 70%) is “about 0.5%”. Also, in data set [2], the Hygroscopicity result is “relatively non-hygroscopic”.

`COc1ccc(-c2cc(NC(=O)CCCCN3CCCN(C(C)=O)CC3)n[nH]2)cc1.Cl` [5-(4-acetyl-[1,4]diazepan-1-yl)-pentanoic acid [5-(4-methoxy-phenyl)-1H-pyrazol-3-yl]-amide hydrochloride]: the Hygroscopicity result in data set [2] was “extreme hygroscopicity”.

Molecule `COc1ccc(-c2cc(NC(=O)CCCCN3CCCN(C(C)=O)CC3)[nH]n2)cc1` (as salt: hydrochloric acid salt) [5-(4-Acetyl-[1,4]diazepan-1-yl)-pentanoic acid [5-(4-methoxy-phenyl)-2H-pyrazol-3-yl]-amide] had a melting point of 185 °C.

`COc1ccc(-c2cc(NC(=O)CCCCN3CCCN(C(C)=O)CC3)[nH]n2)cc1` [Crystal Form V, 5-(4-Acetyl-[1,4]diazepan-1-yl)-pentanoic acid [5-(4-methoxy-phenyl)-2H-pyrazol-3-yl]-amide]: in data set [2], the water uptake entry was “(7% at RH” and the Hygroscopicity entry was “Hygroscopic”.

Consider `COc1ccc(-c2cc(NC(=O)CCCCN3CCCN(C(C)=O)CC3)[nH]n2)cc1` [Crystal Form III, 5-(4-Acetyl-[1,4]diazepan-1-yl)-pentanoic acid [5-(4-methoxy-phenyl)-2H-pyrazol-3-yl]-amide], for which, in data set [2], the water uptake entry is “(10% water” and the Hygroscopicity result is “Hygroscopic”.

(Values after patent US20100130474A1 (WYETH, priority 2008, published 2010).)
